This is an account of results in paper PMC8333053, “Synthesis and biological screening of new thiadiazolopyrimidine-based polycyclic compounds” (Scientific Reports, 2021).

For series [1], the system named is Aspergillus fumigatus 293. Nature of the series: Antifungal MIC, two-fold serial dilution. Type of series: cell-based. To be noted: Fungi, glucose minimal medium, 30°C, 48 h, visual (no turbidity). How it is done: (§1) The antimicrobial activity of the synthesized thiadiazolopyrimidine compounds was studied toward diverse pathogenic strains, such as gram-positive bacteria (Staphylococcus aureus ATCC 29213 and Bacillus cereus UW85), gram-negative bacteria (Escherichia coli ATCC 12435 and Pseudomonas aeruginosa ATCC 29260), and fungi (Candida albicans and Aspergillus fumigatus 293). The assessment was performed through the two-fold dilution technique using Ampicillin (antibacterial) and Fluconazole (antifungal) as the reference drugs[28],[29]. The minimal inhibitory concentration (MICs, µg/mL) of the synthesized derivatives for prohibiting microbial growth was determined through the visual detection (no turbidity) technique.
(§2) The synthesized thiadiazolopyrimidine-based compounds were evaluated and adopted for antibacterial and antifungal effectiveness using the approved procedure[38],[39].
(§3) Minimal inhibitory concentrations (MICs) were determined by serial dilution technique using 96-multiwell microtiter plates. The investigated compounds were dissolved in DMSO 100% to prepare stock solutions of 5000 µg/mL. Two-fold serial dilutions of the dissolved compounds were performed in glucose minimal medium providing eight different concentrations (1250, 625, 312.5, 156, 78, 39, 19.5 µg/mL). The microorganisms were diluted to 1 ×10^3 SFU/mL in glucose minimal medium, and 20 µL of the diluted culture was added to the test solutions (50 µL) in the wells (one well per concentration). The plates were incubated at 30°C for 48 h. MIC was detected visually as the least concentration inhibiting fungal growth (no turbidity) and the activity of the tested compounds was estimated in comparison to fluconazole.

Series [2] deals with Candida albicans. Kind of series: Antifungal MIC, two-fold serial dilution. The class given is cell-based. The note with it: Fungi, glucose minimal medium, 30°C, 48 h, visual (no turbidity). How it is done:
as §1, §2, §3

The test system of series [3] is HepG2. Kind of series: MTT cytotoxicity assay. The note with it: Homo sapiens, HepG2, 72 h, 3 days. Type of series: cell-based. The method, then: (§4) The cytotoxicity of the prepared tri-and tetra-cyclic thiadiazolopyrimidine compounds were examined toward various cancer cell lines, such as liver and breast cancer (MCF-7), prostate cancer (PC3), laryngeal carcinoma (Hep-2), carcinoma (HepG2), and standard normal fibroblast cells (WI38) using the MTT assay[33] at the National Research Centre (Egypt). The cytotoxicity (Table 3) toward 50% inhibition of the cell viability (IC50 values) was assessed using 5-fluorouracil (5-Fu) as the standard anticancer drug.
(§5) The synthesized compounds were subjected to the MTT cytotoxicity assay on the basis of the cited literature.
(§6) MTT cytotoxicity assay: The technical method of MTT assay depends on the reduction of yellow 3-(4,5-methyl-2-thiazolyl)-2,5-diphenyl-2H-tetrazolium bromide (MTT) into purple formazan product, mainly by mitochondrial reductase activity inside the living cells. The cells used in cytotoxicity assay were cultured in RPMI 1640 medium supplemented with 10% fetal calf serum. Cells suspended in the medium (2×10^4 cells/mL) were plated in 96-well culture plates and incubated at 37 °C in a 5% CO2 incubator for 12 hours. The tested sample (2 μL) was added to the cells (2×10^4) in 96-well plates and cultured at 37 °C for 3 days. The cultured cells were mixed with 20 μL of MTT solution and incubated for 4 hours at 37 °C. The supernatant was carefully removed from each well, the formazan crystals were dissolved after addition of DMSO (100 μL) for each well to form the cellular reduction of MTT. After mixing with a mechanical plate mixer, the absorbance of each well was measured by a microplate reader using a test wavelength of 570 nm. The results were expressed as the IC50 values, which inducing 50% inhibition of cell growth of the treated cells when compared to the growth of control cells.
(In general: Formazan colour is commonly taken as a measure of viable cells.)

The test system of series [4] is MCF-7. Kind of series: MTT cytotoxicity assay. The class given is cell-based. The note with it: Homo sapiens, MCF7, 72 h, 3 days. How it is done: as §4, §5, §6
Series [5] relates to Hep-2. Nature of the series: MTT cytotoxicity assay. To be noted: Homo sapiens, HEp-2, 72 h, 3 days. Type of series: cell-based. How it is done: as §4, §5, §6
Series [6] deals with PC3. Kind of series: MTT cytotoxicity assay. Type of series: cell-based. The note with it: Homo sapiens, PC-3, 72 h, 3 days. The method, then: as §4, §5, §6
Series [7] in a line: MTT cytotoxicity assay on normal cells. The class given is cell-based. To be noted: human, WI38 normal fibroblast cells. How it is done: as §4, §5, §6
The test system of series [8] is DNA. Kind of series: Bleomycin-dependent DNA damage. The class given is biochemical. The note with it: test sample 0.1 mg/mL, λ = 532 nm; mean of three replicates ± SD; ascorbic acid 0.24 mM. An excerpt:
Bleomycin-dependent DNA damage. The prepared polycyclic thiadiazolopyrimidine-based compounds were examined through the bleomycin-dependant DNA damage, and the results were compared to that of ascorbic acid as a positive control. The obtained data reflected the ability of these derivatives to protect the DNA from damage. The capability of compounds 16a–b and 17a–b to manifest the best protective effect against DNA damage was indicated by the corresponding absorbance values ranging from 0.031 to 0.053 (Table 4)[35],[36].
Bleomycin-dependent DNA damage experiment: To a mixture of 0.5 mg / mL of DNA, 5 mM magnesium chloride, 50 mM ferric chloride and 0.05 mg / mL bleomycin sulfate was prepared. The test sample was prepared at a concentration of 0.1 mg / mL and added to the mixture. After incubation of the mixture for one hour at 37 °C, 0.05 mL of EDTA (0.1 M) was added to terminate the reaction. In the next step, 0.5 mL of TBA (1% w / v) and 0.5 mL of HCl (25% v / v) were added for colour development and the mixture was heated for 10 minutes at 80 °C. The mixture was centrifuged and the absorbance expressed, the amount of damage to the DNA was measured at λ = 532 nm. L-Ascorbic acid (0.24 mM) was used as a positive control.

Series [9] concerns Chromobacterium violaceum (ATCC 12472). Kind of series: Antiquorum-sensing assay (violacein pigment inhibition). Type of series: cell-based. The note with it: 5 mg/mL, 50 µL per well, 30°C, 48 h; QS inhibition = r2 − r1. An excerpt:
The synthesized thiadiazolopyrimidine-based compounds were screened for their antiquorum-sensing (anti-QS) inhibition activity by the Chromobacterium violaceum (ATCC 12472) technique using catechin as the standard compound[28]–[30]. The QS technique of C. violaceum was remarked by the detection of violacein (violet pigment)[31],[32]. Meanwhile, the reactivity of the synthesized thiadiazolopyrimidine-containing derivatives as drugs depends on their efficiency to inhibit the liberation of violacein during the QS technique. The QS inhibition was determined by the following equation: QS inhibition (mm) = (r2 − r1), where r1 is the inhibition radius of the bacterial growth and r2 is the inhibition radius for growth as well as the release of the pigment.
The anti-QS inefficiency was evaluated using the previous technique mentioned in the literature.
The culture was prepared by growing Ch. violaceum ATCC 12472 in LB broth and incubated for 16–18 h in an orbital incubator running at 28°C and 150 rpm. The culture was then adjusted to 0.5 McFarland standard (ca. 1 × 10^6 CFU/mL). Ch. violaceum (50 µL) was inoculated into LB agar (50 mL), poured into plates, and solidified. Wells were made in LB agar medium using cork borer. The tested compounds were dissolved in DMSO 100% in Eppendorf tubes for final concentration of 5 mg/mL, and 50 µL of the test solution was applied into the wells. The positive control (catechin) was also added at the same concentration and volume to each plate. In addition, DMSO (control solvent) was added to each plate. […] Bacterial growth inhibition by the tested compounds was measured as radius (r1) in mm, while both growth and pigment inhibition was measured as radius (r2) in mm. The pigment inhibition (QS inhibition) was determined by subtracting bacterial growth inhibition (r1) from the total radius (r2); thus, QS inhibition = (r2 - r1) in mm.

Series [10] deals with Bacillus cereus UW85. Nature of the series: Antibacterial MIC, two-fold serial dilution. Type of series: cell-based. To be noted: Gram +ve bacteria, LB broth, 37°C, 24 h, visual (no turbidity), read-out: MIC B. cereus. How it is done: as §1, §2
(§7) Minimal inhibitory concentrations (MICs) were determined by serial dilution technique using 96-multiwell microtiter plates. The investigated compounds were dissolved in DMSO 100% to prepare stock solutions of 5000 µg/mL. Two-fold serial dilutions of the dissolved compounds were performed in LB broth providing eight different concentrations (1250, 625, 312.5, 156, 78, 39, 19.5 µg/mL). Overnight cultures of microorganisms were diluted to 1 ×10^6 CFU/mL in LB broth, and 20 mL of the diluted cultures were added to the test solutions (50 mL) in the wells (one well per concentration per bacterial strain). The plates were incubated at 37°C for 24 h. MIC was detected visually as the least concentration inhibiting bacterial growth (no turbidity) and the activity of the tested compounds was estimated in comparison to ampicillin.

Series [11] concerns Pseudomonas aeruginosa ATCC 29260. Nature of the series: Antibacterial MIC, two-fold serial dilution. The note with it: ATCC29260, Gram −ve bacteria, LB broth, 37°C, 24 h, visual (no turbidity), read-out: MIC P. aeruginosa. The class given is cell-based. The method, then: as §1, §2, §7
Series [12] deals with Escherichia coli ATCC 12435. Nature of the series: Antibacterial MIC, two-fold serial dilution. Type of series: cell-based. To be noted: ATCC12435, Gram −ve bacteria, LB broth, 37°C, 24 h, visual (no turbidity). How it is done:
as §1, §2, §7

Series [13] deals with Staphylococcus aureus ATCC 29213. Kind of series: Antibacterial MIC, two-fold serial dilution. Type of series: cell-based. To be noted: ATCC29213, Gram +ve bacteria, LB broth, 37°C, 24 h, visual (no turbidity), read-out: MIC S. aureus. How it is done: as §1, §2, §7

Molecules are shown by their SMILES. In brackets after ≈: the same amount, converted by molar mass.

In general, MIC refers to the lowest concentration that inhibits growth of the organism. Consider `OC(Cn1cncn1)(Cn1cncn1)c1ccc(F)cc1F` [Fluconazole, reference compound], for which the MIC in series [1] and in series [2] was > 1250 µg/mL in each case.
For orientation: IC50 means the concentration at which inhibition is half-maximal. Read a high IC50 as a need for much substance. For the molecule `O=c1[nH]cc(F)c(=O)[nH]1` [Compound 5-Fu, 5-Fluorouracil, reference compound], the IC50 is 7.2 ± 0.45 µM in [3], 5.58 ± 0.31 µM in series [4], 5.35 ± 0.23 µM in [5] and 8.78 ± 0.6 µM in series [6]. The molecule also displayed an IC50 at 3 days in series [7] of 10.3 ± 0.62 µM.
On to `O=C1O[C@H]([C@@H](O)CO)C(O)=C1O` [Ascorbic acid, L-Ascorbic acid, reference compound], for which, in series [8], the “Absorbance (bleomycin-dependent DNA damage)” value is 0.060 ± 0.02.
Take `O.Oc1cc(O)c2c(c1)O[C@H](c1ccc(O)c(O)c1)[C@@H](O)C2` [Catechin, catechin, reference compound]: the “Diameter of quorum-sensing inhibition C. violaceum” value in series [9] worked out at 2 mm.
`CC1(C)S[C@@H]2[C@H](NC(=O)[C@H](N)c3ccccc3)C(=O)N2[C@H]1C(=O)O` [Ampicillin, reference compound]: the MIC is 1250 µg/mL (≈ 3.58 mM) in series [10], 78 µg/mL (≈ 0.223 mM) in series [11], 19.5 µg/mL (≈ 0.0558 mM) in series [12] and > 1250 µg/mL in series [13].
